For 25 molecules, IC50 results are on record in US20260242372A1, “NOVEL IMIDAZOPYRIDINE AND PYRAZOLOPYRIDINE SULFONAMIDE DERIVATIVES” (Hoffmann-La Roche Inc., priority 2022, published 2026).

This test addresses human GPR17 short isoform (Homo sapiens, UniProt Q13304). Kind of test: GPR17 cAMP assay (hGPR17 cAMP, TR-FRET, antagonist mode). It is filed as cell-based. The settings on record: CHO-K1 cells stably expressing human GPR17 short isoform; EC80 of agonist MDL29,951; forskolin 15 μM; 30 min at room temperature. The procedure: CHO-K1 cells stably expressing vector containing untagged human GPR17 short isoform (Roche) were cultured at 37° C./5% CO2 in DMEM (Dulbecco's Modified Eagle Medium): F-12 (1:1) supplemented with 10% foetal bovine serum and 400 μg/ml Geneticin.
Changes in intracellular cyclic adenosine monophosphate (cAMP) levels were quantified using the Nano-TRF Detection Assay kit (Roche Diagnostics, Cat. No. 05214386001). This assay allows for direct cAMP quantification in a homogeneous solution. CAMP is detected based on time-resolved fluorescence energy transfer (TR-FRET) and competitive binding of ruthenylated cAMP and endogenous cAMP to an anti-cAMP monoclonal antibody labeled with AlexaFluor-700. The Ruthenium complex serves as the FRET donor and transfers energy to AlexaFluor-700. The FRET signal is inversely proportional to the CAMP concentration.
CHO-GPR17S cells were detached with Accutase and resuspended in assay buffer consisting of Hank's Balanced Salt Solution (HBSS), 10 mM HEPES (4-(2-hydroxyethyl) piperazine-1-ethanesulfonic acid solution) and 0.1% bovine serum albumin (pH 7.4). The cells were seeded in black 384-well plates (Corning) at a density of 10′000 cells/20 μl assay buffer until the addition of compounds.
Test antagonist compounds were serially diluted in dimethyl sulfoxide (DMSO) and spotted in 384-well plates. The compounds were then diluted in HBSS buffer supplemented with an EC80 concentration of MDL29,951 (3-(2-Carboxy-4,6-dichloroindol-3-yl) propionic acid) (GPR17 agonist) plus 3-Isobutyl-1-methylxanthine (IBMX) (0.5 mM final concentration) and added to the cells at room temperature. Forskolin (15 μM final concentration) was added 5 minutes after the test compounds and the cells were incubated at room temperature for 30 minutes. The assay was stopped by adding cAMP detection mix (containing detergents for cell lysis) for 90 minutes at room temperature.
Cellular cAMP was measured using a Paradigm reader (Molecular Devices). The raw data was used to calculate the FRET signal based on the assay's P-factor as per cAMP kit instructions. The data was normalized to the maximal activity of a reference antagonist and dose response curves were fitted to the percent activity of the test compounds using a sigmoidal dose response model (Genedata Screener).
For orientation: Changes in cAMP serve as a functional read-out for many G protein-coupled receptors.

human GPR17 short isoform, sequence (Q13304 29-367): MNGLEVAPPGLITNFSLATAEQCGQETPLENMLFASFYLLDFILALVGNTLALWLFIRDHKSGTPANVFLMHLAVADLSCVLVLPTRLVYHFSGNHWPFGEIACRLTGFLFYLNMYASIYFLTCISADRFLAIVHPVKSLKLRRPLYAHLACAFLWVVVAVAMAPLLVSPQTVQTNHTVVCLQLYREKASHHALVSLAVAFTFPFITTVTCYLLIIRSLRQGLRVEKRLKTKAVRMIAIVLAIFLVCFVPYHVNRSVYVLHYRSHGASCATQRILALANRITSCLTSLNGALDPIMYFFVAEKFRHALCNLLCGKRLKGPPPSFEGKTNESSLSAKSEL

As usually defined, the IC50 is the midpoint of a concentration-inhibition curve. A low value points to greater potency. `COc1nc(OCC(F)F)c(F)cc1NS(=O)(=O)c1cnc2c(C#N)c(C)ccn12` [Example 27, 8-cyano-N-[6-(2,2-difluoroethoxy)-5-fluoro-2-methoxy-3-pyridyl]-7-methyl-imidazo[1,2-a]pyridine-3-sulfonamide] returned an IC50 of 31 nM.

Regarding `COc1nc(OC(F)F)c(F)cc1NS(=O)(=O)c1cnc2nc(C3CC3)ccn12` [Example 28, 7-cyclopropyl-N-[6-(difluoromethoxy)-5-fluoro-2-methoxy-3-pyridyl]imidazo[1,2-a]pyrimidine-3-sulfonamide], the IC50 came to 31 nM.

On to `COc1ccn2c(S(=O)(=O)Nc3cc(F)c(OC(F)F)nc3OC)cnc2c1` [Example 29, N-[6-(difluoromethoxy)-5-fluoro-2-methoxy-3-pyridyl]-7-methoxy-imidazo[1,2-a]pyridine-3-sulfonamide], for which the IC50 amounted to 33 nM.

The molecule `COc1nc(OCC(F)F)c(F)cc1NS(=O)(=O)c1cnc2n1CCC(C)C2C` (stereo not shown) [Example 30, N-[6-(2,2-difluoroethoxy)-5-fluoro-2-methoxy-3-pyridyl]-7,8-dimethyl-5,6,7,8-tetrahydroimidazo[1,2-a]pyridine-3-sulfonamide] showed a 50% inhibitory concentration (IC50) of 35 nM.

As to `COc1nc(OCC(F)F)c(F)cc1NS(=O)(=O)c1cnc2cc(C(F)(F)F)ccn12` [Example 31, N-[6-(2,2-difluoroethoxy)-5-fluoro-2-methoxy-3-pyridyl]-7-(trifluoromethyl)imidazo[1,2-a]pyridine-3-sulfonamide], the IC50 was 38 nM.

On to `COc1c(C)ccn2c(S(=O)(=O)Nc3cc(F)c(CC#N)cc3F)cnc12` [Example 32, N-[4-(cyanomethyl)-2,5-difluoro-phenyl]-8-methoxy-7-methyl-imidazo[1,2-a]pyridine-3-sulfonamide], for which the 50% inhibitory concentration (IC50) is 40 nM.

On to `COc1nc(OCC(F)F)c(F)cc1NS(=O)(=O)c1cnc2c(C#N)c(C3CC3)ccn12` [Example 33, 8-cyano-7-cyclopropyl-N-[6-(2,2-difluoroethoxy)-5-fluoro-2-methoxy-3-pyridyl]imidazo[1,2-a]pyridine-3-sulfonamide], for which the IC50 worked out at 42 nM.

Regarding `N#CCc1cc(F)c(NS(=O)(=O)c2cnc3cc(Br)ccn23)cc1F` [Example 34, 7-bromo-N-[4-(cyanomethyl)-2,5-difluoro-phenyl]imidazo[1,2-a]pyridine-3-sulfonamide], the half-maximal inhibitory concentration (IC50) was determined as 45 nM.

In turn, `COc1ccn2c(S(=O)(=O)Nc3nc(OC)c(CC#N)cc3F)cnc2c1` [Example 35, N-[5-(cyanomethyl)-3-fluoro-6-methoxy-2-pyridyl]-7-methoxy-imidazo[1,2-a]pyridine-3-sulfonamide] returned an IC50 of 46 nM.

With `COc1nc(NS(=O)(=O)c2cnc3nc(C4CC4)ccn23)c(F)cc1CC(F)F` [Example 36, 7-cyclopropyl-N-[5-(2,2-difluoroethyl)-3-fluoro-6-methoxy-2-pyridyl]imidazo[1,2-a]pyrimidine-3-sulfonamide], the IC50 stood at 52 nM.

Take `COc1ccn2c(S(=O)(=O)Nc3cc(F)c(OCC(F)F)nc3OC)cnc2n1` [Example 37, N-[6-(2,2-difluoroethoxy)-5-fluoro-2-methoxy-3-pyridyl]-7-methoxy-imidazo[1,2-a]pyrimidine-3-sulfonamide]: the IC50 worked out at 56 nM.

In the case of `O=S(=O)(Nc1cc(F)c(OC(F)F)nc1OC(F)F)c1cnc2cc(Cl)ccn12` [Example 38, N-[2,6-bis(difluoromethoxy)-5-fluoro-3-pyridyl]-7-chloro-imidazo[1,2-a]pyridine-3-sulfonamide], the concentration for half-maximal inhibition (IC50) was 57 nM.

As for `COc1nc(NS(=O)(=O)c2cnc3cc(Cl)ccn23)c(F)cc1OC(F)F` [Example 40, 7-chloro-N-[5-(difluoromethoxy)-3-fluoro-6-methoxy-2-pyridyl]imidazo[1,2-a]pyridine-3-sulfonamide], the half-inhibitory concentration (IC50) stood at 64 nM.

Molecule `COc1nc(OCC(F)F)c(F)cc1NS(=O)(=O)c1cnc2n1CCC(C(F)(F)F)C2` (stereo not shown) [Example 41, N-[6-(2,2-difluoroethoxy)-5-fluoro-2-methoxy-3-pyridyl]-7-(trifluoromethyl)-5,6,7,8-tetrahydroimidazo[1,2-a]pyridine-3-sulfonamide] registered a 50% inhibitory concentration (IC50) of 66 nM.

With `COc1nc(OCC(F)F)c(F)cc1NS(=O)(=O)c1cnc2nc(Cl)ccn12` [Example 42, 7-chloro-N-[6-(2,2-difluoroethoxy)-5-fluoro-2-methoxy-3-pyridyl]imidazo[1,2-a]pyrimidine-3-sulfonamide], the half-maximal inhibitory concentration (IC50) amounted to 72 nM.

`COc1nc(OC(F)F)c(F)cc1NS(=O)(=O)c1cnc2c(C#N)c(C)ccn12` [Example 43, 8-cyano-N-[6-(difluoromethoxy)-5-fluoro-2-methoxy-3-pyridyl]-7-methyl-imidazo[1,2-a]pyridine-3-sulfonamide] returned an IC50 of 75 nM.

Regarding `COc1nc(NS(=O)(=O)c2cnc3cc(Cl)ccn23)c(F)cc1C1CC1` [Example 44, 7-chloro-N-(5-cyclopropyl-3-fluoro-6-methoxy-2-pyridyl)imidazo[1,2-a]pyridine-3-sulfonamide], the IC50 is 76 nM.

As for `COc1nc(OCC(F)F)c(F)cc1NS(=O)(=O)c1cnc2n1CCC(C)(C)C2` [Example 45, N-[6-(2,2-difluoroethoxy)-5-fluoro-2-methoxy-3-pyridyl]-7,7-dimethyl-6,8-dihydro-5H-imidazo[1,2-a]pyridine-3-sulfonamide], the 50% inhibitory concentration (IC50) came to 76 nM.

`COc1nc(NS(=O)(=O)c2cnc3cc(Br)ccn23)nc(OC)c1Br` [Example 46, 7-bromo-N-(5-bromo-4,6-dimethoxy-pyrimidin-2-yl)imidazo[1,2-a]pyridine-3-sulfonamide] displayed an IC50 of 82 nM.

In turn, `COc1nc(NS(=O)(=O)c2cnc3cc(Br)ccn23)c(F)cc1OCCF` [Example 47, 7-bromo-N-[3-fluoro-5-(2-fluoroethoxy)-6-methoxy-2-pyridyl]imidazo[1,2-a]pyridine-3-sulfonamide] came in with a half-inhibitory concentration (IC50) of 83 nM.

For the molecule `COc1nc(OCC(F)F)c(F)cc1NS(=O)(=O)c1cnc2nc(C)ccn12` [Example 48, N-[6-(2,2-difluoroethoxy)-5-fluoro-2-methoxy-3-pyridyl]-7-methyl-imidazo[1,2-a]pyrimidine-3-sulfonamide], the concentration for half-maximal inhibition (IC50) was determined as 85 nM.

In turn, `COc1nc(NS(=O)(=O)c2cnc3nc(C4CC4)ccn23)c(F)cc1OCC(F)F` [Example 49, 7-cyclopropyl-N-[5-(2,2-difluoroethoxy)-3-fluoro-6-methoxy-2-pyridyl]imidazo[1,2-a]pyrimidine-3-sulfonamide] came in with an IC50 of 89 nM.

In the case of `COc1nc(OCC(F)F)c(F)cc1NS(=O)(=O)c1cnc2n1CCCC2C` (stereo not shown) [Example 50, N-[6-(2,2-difluoroethoxy)-5-fluoro-2-methoxy-3-pyridyl]-8-methyl-5,6,7,8-tetrahydroimidazo[1,2-a]pyridine-3-sulfonamide], the 50% inhibitory concentration (IC50) was determined as 98 nM.

Take `COc1nc(NS(=O)(=O)c2cnc3cc(Cl)ccn23)c(F)cc1OCC(F)F` [Example 51, 7-chloro-N-[5-(2,2-difluoroethoxy)-3-fluoro-6-methoxy-2-pyridyl]imidazo[1,2-a]pyridine-3-sulfonamide]: the IC50 was 99 nM.

For the molecule `COc1nc(OCC(F)F)c(F)cc1NS(=O)(=O)c1cnc2c(C#N)c(Cl)ccn12` [Example 52, 7-chloro-8-cyano-N-[6-(2,2-difluoroethoxy)-5-fluoro-2-methoxy-3-pyridyl]imidazo[1,2-a]pyridine-3-sulfonamide], the IC50 turned out to be 99 nM.
